Series [1] deals with T1, UGT1A8 (Homo sapiens, UniProt Q9HAW9).
T1 sequence (Q9HAW9 26-530): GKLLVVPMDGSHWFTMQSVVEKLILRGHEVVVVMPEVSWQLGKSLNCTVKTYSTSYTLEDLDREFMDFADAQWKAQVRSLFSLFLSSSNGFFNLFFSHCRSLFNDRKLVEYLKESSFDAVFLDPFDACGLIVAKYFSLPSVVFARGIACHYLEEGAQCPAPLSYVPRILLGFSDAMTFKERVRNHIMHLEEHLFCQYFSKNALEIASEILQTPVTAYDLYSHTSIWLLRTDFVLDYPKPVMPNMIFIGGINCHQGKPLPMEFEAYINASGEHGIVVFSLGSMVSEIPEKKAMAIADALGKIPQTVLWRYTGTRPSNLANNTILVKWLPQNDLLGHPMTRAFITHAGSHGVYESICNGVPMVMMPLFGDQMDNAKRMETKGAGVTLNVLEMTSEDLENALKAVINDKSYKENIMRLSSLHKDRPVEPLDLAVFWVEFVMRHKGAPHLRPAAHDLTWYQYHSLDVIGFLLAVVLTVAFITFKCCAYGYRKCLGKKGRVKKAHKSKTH
The experiment in a line: Inhibition of raloxifene glucuronidation by recombinant UGT1A8 Supersomes. The note with it: for activity at 15 min, 10 µM: human, Supersomes with recombinant human UGT1A8, pH 7.5, probe raloxifene 50 μM, inhibitor 10 μM.
Description: (§1) Compounds were eluted using a binary solvent gradient system. Solvent A was water brought to pH 8 with NH4OH. Solvent B was methanol. Solvent flow rate was 1 ml/min and the column temperature was maintained at 50° C. Detection was at 280 nm. […] The system was then returned to the initial conditions and equilibrated for 3 min.

The subject of series [2] is T2, UGT enzymes of human liver microsomes.
T2 construct: residual metabolism (percentage of control), labetalol LG1; other: labetalol 50 μM; residual metabolism (percentage of control), labetalol LG1; residual metabolism (percentage of control), labetalol LG2; inhi
The series can be described thus: Inhibition of labetalol glucuronidation (LG1, LG2) in human liver microsomes. Format: biochemical. Particulars: labetalol 50 μM. The method, then:
Supernatants were analyzed by HPLC with fluorescence detection.
Compounds were eluted using a binary solvent gradient system where solvent A was 5:5:90 tetrahydrofuran-acetonitrile-(NH4)2HPO4 50 mM, while solvent B was 25:25:50 tetrahydrofuran-acetonitrile-(NH4)2HPO4 50 mM. Solvent flow rate was 0.75 ml/min and the column temperature was ambient. […] Labetalol and metabolites were measured by fluorescence detection using a Jasco model FP920 detector. Excitation and emission wavelengths were 370 nm 418 nm respectively. Retention times for salicylamide internal standard and labetalol were 6.6 min and 15.0 min respectively.

Series [3] deals with T3, UGT enzymes of human liver microsomes (Homo sapiens, UniProt P16662).
T3 construct: residual metabolism (percentage of control), zidovudine glucuronidation; other: liver lot 062101; residual metabolism (percentage of control), zidovudine glucuronidation; residual metabolism (percentage of control)
T3 sequence (P16662 1-529): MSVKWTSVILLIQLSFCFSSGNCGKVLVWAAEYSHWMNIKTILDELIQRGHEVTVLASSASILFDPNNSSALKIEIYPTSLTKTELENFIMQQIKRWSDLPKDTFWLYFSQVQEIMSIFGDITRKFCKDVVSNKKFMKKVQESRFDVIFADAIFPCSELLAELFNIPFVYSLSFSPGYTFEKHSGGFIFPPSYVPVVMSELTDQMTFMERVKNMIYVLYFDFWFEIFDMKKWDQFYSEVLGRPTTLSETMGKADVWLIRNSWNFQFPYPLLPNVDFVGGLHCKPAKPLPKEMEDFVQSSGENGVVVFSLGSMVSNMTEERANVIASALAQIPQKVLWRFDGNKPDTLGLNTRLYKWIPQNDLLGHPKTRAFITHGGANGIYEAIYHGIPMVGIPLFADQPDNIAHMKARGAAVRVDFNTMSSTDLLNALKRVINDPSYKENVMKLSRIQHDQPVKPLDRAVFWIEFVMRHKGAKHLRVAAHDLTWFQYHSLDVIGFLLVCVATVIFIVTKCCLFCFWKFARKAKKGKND
The series can be described thus: Inhibition of zidovudine glucuronidation in human liver microsomes. Format: biochemical. The note with it: liver lot 062101. The protocol:
Compounds were eluted using a binary solvent gradient system where solvent A was dilute phosphoric acid (pH 3) and solvent B was acetonitrile.
Standardized incubations utilized 500 μM zidovudine substrate, 1 mg/ml microsomal protein, 5 mM UDPGA and a 30 min incubation time. […] Int.

Series [4] concerns the target T4, UGT1A1 (Homo sapiens, UniProt P22309).
T4 sequence (P22309 26-533): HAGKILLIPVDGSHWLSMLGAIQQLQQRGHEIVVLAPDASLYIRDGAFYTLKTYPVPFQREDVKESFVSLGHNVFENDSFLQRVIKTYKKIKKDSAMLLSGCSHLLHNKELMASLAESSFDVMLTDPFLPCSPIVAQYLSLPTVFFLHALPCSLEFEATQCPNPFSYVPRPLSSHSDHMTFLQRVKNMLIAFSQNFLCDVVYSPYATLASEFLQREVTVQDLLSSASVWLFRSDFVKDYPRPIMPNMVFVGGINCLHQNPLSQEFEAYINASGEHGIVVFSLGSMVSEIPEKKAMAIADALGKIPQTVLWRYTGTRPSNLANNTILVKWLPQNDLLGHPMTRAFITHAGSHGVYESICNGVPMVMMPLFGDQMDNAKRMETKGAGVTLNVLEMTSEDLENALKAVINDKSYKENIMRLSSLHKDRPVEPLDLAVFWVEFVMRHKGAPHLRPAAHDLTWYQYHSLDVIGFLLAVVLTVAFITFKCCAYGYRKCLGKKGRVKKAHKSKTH
The series can be described thus: Inhibition of raloxifene glucuronidation by recombinant UGT1A1 Supersomes. The note with it: for activity at 15 min / activity at 15 min, 2 μM / activity at 15 min, 5 µM / activity at 15 min, 10 µM / activity at 15 min, 25 µM / activity at 15 min, 50 µM: human; for activity at 15 min, 2 μM: inhibitor 2 μM; for activity at 15 min, 5 µM: inhibitor 5 μM; for activity at 15 min, 10 µM: inhibitor 10 μM; for activity at 15 min, 25 µM: inhibitor 25 μM; for activity at 15 min, 50 µM: inhibitor 50 μM.
Description: as §1

Series [5] deals with T5, UGT enzymes of human liver microsomes.
T5 construct: percentage of control metabolism, 7-HFC glucuronidation; percentage of control metabolism, 7-HFC glucuronidation
The experiment in a line: Kinetic and Ki studies of inhibitors of 7-HFC glucuronidation in human liver microsomes. Particulars: 7-HFC 20-500 μM. The format is biochemical. On the technique in general: Liver microsomes are vesicles of endoplasmic reticulum, rich in cytochrome P450 enzymes.

Series [6] deals with UGT enzymes of pooled human jejunum microsomes. The series can be described thus: Inhibition of estradiol (E2) glucuronidation in pooled human jejunum microsomes. Format: biochemical. Particulars: jejunum HJ61; E2 50 μM; inhibitor 10 μM. An excerpt: Compounds were eluted using a binary solvent gradient system where solvent A was dilute phosphoric acid (pH 3) and solvent B was 80:20 acetonitrile-methanol. […] Detection was at 280 nm.

Where [7] appears, read: Supersomes with recombinant human UGT1A1, pH 7.5, probe raloxifene 50 μM, formation of glucuronide G1, % of control metabolism, raloxifene G1, UGT1A1.
The mark [8] stands for this setting: Supersomes with recombinant human UGT1A1, pH 7.5, probe raloxifene 50 μM, formation of glucuronide G1, Inhibition of raloxifene glucuronidation, G1, UGT1A1, G1, raloxifene 50 μM, 250 μg/ml Supersomes, 1 mM UDPGA, 15 min.
[9] abbreviates: Supersomes with recombinant human UGT1A1, pH 7.5, probe raloxifene 50 μM, formation of glucuronide G2, % of control metabolism, raloxifene G2, UGT1A1.
[10] abbreviates: recombinant UGT1A1 Supersomes, pH 7.5, probe raloxifene 50 μM (formation of glucuronide G1), Inhibition of raloxifene glucuronidation, G1, UGT1A1, G1, raloxifene 50 μM, 250 μg/ml Supersomes, 1 mM UDPGA, 15 min.
Where [11] appears, read: recombinant UGT1A1 Supersomes, pH 7.5, probe raloxifene 50 μM (formation of glucuronide G2), Inhibition of raloxifene glucuronidation, G2, UGT1A1, G2, raloxifene 50 μM, 250 μg/ml Supersomes, 1 mM UDPGA, 15 min.

Several values for one entry are separate records, joined by “and”; a condition that tells them apart may be missing. Equal entries are not always repeated.

Turning to `C=CCc1ccc(O)c(OC)c1` [Eugenol], the “inhibition of raloxifene glucuronidation, in words” value in series [1] (UGT1A8) and in series [4] (UGT1A1) was “ineffective” throughout. Moreover, the “residual metabolism (percentage of control), labetalol LG1” value in series [2] (inhibitor 100 μM) is recorded as 82 (2) %. Further, the “residual metabolism (percentage of control), labetalol LG2” value in series [2] (inhibitor 100 μM) is recorded as 75 (4) %. Moreover, the “residual metabolism (percentage of control), zidovudine glucuronidation” value is given as 84 (2) % in series [3] (inhibitor 500 μM) and 48 (4) % in series [3] (inhibitor 1000 μM).
As to `CCCOC(=O)c1cc(O)c(O)c(O)c1` [Propyl gallate], the “residual metabolism (percentage of control), zidovudine glucuronidation” value in series [3] (inhibitor 500 μM) was 77 (2) %.
What is called Km is the concentration of substrate that gives half-maximal velocity. In the case of `O=C(OC[C@H]1O[C@@H](OC(=O)c2cc(O)c(O)c(OC(=O)c3cc(O)c(O)c(O)c3)c2)[C@H](OC(=O)c2cc(O)c(O)c(OC(=O)c3cc(O)c(O)c(O)c3)c2)[C@@H](OC(=O)c2cc(O)c(O)c(OC(=O)c3cc(O)c(O)c(O)c3)c2)[C@@H]1OC(=O)c1cc(O)c(O)c(OC(=O)c2cc(O)c(O)c(O)c2)c1)c1cc(O)c(O)c(OC(=O)c2cc(O)c(O)c(O)c2)c1` [Tannic acid], the activity at 15 min, 10 µM worked out at 73% in series [1] (formation of glucuronide G1, % of control metabolism, raloxifene G1, UGT1A8); 75% in series [1] (formation of glucuronide G2, % of control metabolism, raloxifene G2, UGT1A8); 17% in series [4] (setting [7]); 17% in series [4] (setting [9]). In addition, the “residual metabolism (percentage of control), labetalol LG1” value in series [2] (inhibitor 50 μM) is 42 (1) %; in series [2] (inhibitor 100 μM), 19 (1) % and 21 (1) %. In addition, the “residual metabolism (percentage of control), labetalol LG2” value in series [2] (inhibitor 50 μM) is 37 (2) %; in series [2] (inhibitor 100 μM) it was 9 (0) % and 13 (3) %. For the same compound, the “residual metabolism (percentage of control), zidovudine glucuronidation” value in series [3] (inhibitor 50 μM) was 54 (2) % and 50 (4) %; in series [3] (inhibitor 100 μM), 42 (2) % and 37 (4) %; in series [3] (inhibitor 200 μM) it was 20 (2) %. In addition, in series [5], the “Vmax of 7-HFC glucuronidation (fit of the experiment with this inhibitor)” value is 57 ± 3 nmol/min/mg. Besides, the Km in series [5] (read-out: Km of 7-HFC glucuronidation (fit of the experiment with this inhibitor)) stood at 85 ± 7 µM. Besides, the “residual metabolism (% of control), E2-3-β-D-glucuronide” value in series [6] is given as 18 (1) %. For the same compound, the “residual metabolism (% of control), E2-17-β-D-glucuronide” value in series [6] is 17 (1) %. Also, the activity at 15 min in series [4] (Supersomes with recombinant human UGT1A1, pH 7.5, probe raloxifene 50 μM, formation of glucuronide G1) came out at 17%; in series [4] (recombinant UGT1A1 Supersomes, pH 7.5, probe raloxifene 50 μM (formation of glucuronide G2)), 17%. In addition, the activity at 15 min, 2 μM in series [4] (setting [7]), in series [4] (setting [9]), in series [4] (setting [10]) and in series [4] (setting [11]) was 71% throughout. In addition, the activity at 15 min, 5 µM in series [4] (setting [7]) came out at 39%; in series [4] (setting [9]) it was 38%; in series [4] (setting [10]), 39%; in series [4] (setting [11]), 38%. For the same compound, the activity at 15 min, 25 µM in series [4] (setting [7]) was determined as 4%; in series [4] (setting [8]), 4%; in series [4] (setting [9]), 8%; in series [4] (setting [11]) it was 8%. For the same compound, the activity at 15 min, 50 µM in series [4] (setting [7]) is 0.4%; in series [4] (setting [8]) it was 0.4%; in series [4] (setting [9]), 0.9%; in series [4] (setting [11]), 0.9%.

Values taken from patent US20030215462A1, “Use of UGT inhibitors to increase bioavailability” (priority 2001, published 2003).
